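In this assay, cells in 96-well plates receive the compound at five concentrations for 48 hours. Endpoints are linearly interpolated between the surrounding concentrations. Abbreviation: GI50, concentration required for 50% inhibition of growth.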 Active and inactive are the calls of the source. Rule as the data show it: active = GI50 up to about 1.1 µM and inactive = higher.
How the values were obtained:
Assay in all cases: NCI tumour cell line growth inhibition, 48 h
SN12C = tested on: SN12C
M14 = tested on: M14
MOLT-4 = tested on: MOLT-4
HOP-62 = tested on: HOP-62
IGROV-1 = tested on: IGROV-1
NCI-H226 = tested on: NCI-H226
SK-MEL-5 = tested on: SK-MEL-5
MCF7 = tested on: MCF7
786-0 = tested on: 786-0
PC-3 = tested on: PC-3
A549 = tested on: A549
HCT-116 = tested on: HCT-116
A498 = tested on: A498
SK-OV-3 = tested on: SK-OV-3
SF-268 = tested on: SF-268
SF-295 = tested on: SF-295
CCRF-CEM = tested on: CCRF-CEM
SF-539 = tested on: SF-539
OVCAR-3 = tested on: OVCAR-3

SMILES	GI50 (SN12C)	GI50 (M14)	GI50 (MOLT-4)	GI50 (HOP-62)	GI50 (IGROV-1)	GI50 (NCI-H226)	GI50 (SK-MEL-5)	GI50 (MCF7)	GI50 (786-0)	GI50 (PC-3)	GI50 (A549)	GI50 (HCT-116)	GI50 (A498)	GI50 (SK-OV-3)	GI50 (SF-268)	GI50 (SF-295)	GI50 (CCRF-CEM)	GI50 (SF-539)	GI50 (OVCAR-3)
COc1ccc(-c2c(=O)[nH]n3c(=S)[nH]c(-c4ccccc4)nc23)cc1OC	16.2 µM (inactive)	19.9 µM (inactive)	8.51 µM (inactive)	30 µM (inactive)	23.8 µM (inactive)	19.2 µM (inactive)	16.4 µM (inactive)	15.8 µM (inactive)	17.2 µM (inactive)	31.3 µM (inactive)	31.7 µM (inactive)	16.6 µM (inactive)	18.1 µM (inactive)	25.1 µM (inactive)	19.4 µM (inactive)	20.8 µM (inactive)	9.1 µM (inactive)	–	–
C[C@]12CCC3=NCCN3C1=CC[C@@H]1[C@@H]2CC[C@@]2(C)[C@H]1CC[C@]2(C)O	> 100 µM (inactive)	89.1 µM (inactive)	35.3 µM (inactive)	84.9 µM (inactive)	39.1 µM (inactive)	39.5 µM (inactive)	17.6 µM (inactive)	61.9 µM (inactive)	14.6 µM (inactive)	62.5 µM (inactive)	> 100 µM (inactive)	31 µM (inactive)	26.9 µM (inactive)	> 100 µM (inactive)	76.7 µM (inactive)	20.7 µM (inactive)	–	22.2 µM (inactive)	> 100 µM (inactive)
COC1=C(OC)C(=O)C(Cc2c(Cl)nc3n2CCS3)=C(C)C1=O	16.3 µM (inactive)	13.1 µM (inactive)	1.36 µM (inactive)	15.6 µM (inactive)	16.9 µM (inactive)	–	11.7 µM (inactive)	12.9 µM (inactive)	18.2 µM (inactive)	17.7 µM (inactive)	15.3 µM (inactive)	11.7 µM (inactive)	18.9 µM (inactive)	12.6 µM (inactive)	17.6 µM (inactive)	14.8 µM (inactive)	2.81 µM (inactive)	14.6 µM (inactive)	16.7 µM (inactive)
COc1cc(C2CC(C)(N3CCCC3)Oc3cc4c(cc32)OCO4)cc(OC)c1OC (stereo not drawn)	0.288 µM (active)	0.394 µM (active)	0.21 µM (active)	0.335 µM (active)	0.31 µM (active)	4.69 µM (inactive)	0.124 µM (active)	0.0925 µM (active)	0.383 µM (active)	0.0889 µM (active)	0.462 µM (active)	0.299 µM (active)	0.578 µM (active)	–	0.745 µM (active)	0.0762 µM (active)	0.184 µM (active)	0.215 µM (active)	0.129 µM (active)
Oc1c([Si](c2ccccc2)(c2ccccc2)c2ccccc2)cc2ccccc2c1-c1c(O)c([Si](c2ccccc2)(c2ccccc2)c2ccccc2)cc2ccccc12	–	> 100 µM (inactive)	42.2 µM (inactive)	98.9 µM (inactive)	> 100 µM (inactive)	–	> 100 µM (inactive)	> 100 µM (inactive)	> 100 µM (inactive)	> 100 µM (inactive)	> 100 µM (inactive)	–	> 100 µM (inactive)	> 100 µM (inactive)	> 100 µM (inactive)	> 100 µM (inactive)	> 100 µM (inactive)	> 100 µM (inactive)	–
O=[N+]([O-])c1ccc(C(Nc2ccccc2)P(c2ccccc2)c2ccccc2)cc1 (stereo not drawn)	> 100 µM (inactive)	> 100 µM (inactive)	24.1 µM (inactive)	67.3 µM (inactive)	> 100 µM (inactive)	> 100 µM (inactive)	> 100 µM (inactive)	> 100 µM (inactive)	> 100 µM (inactive)	> 100 µM (inactive)	> 100 µM (inactive)	8.81 µM (inactive)	> 100 µM (inactive)	> 100 µM (inactive)	> 100 µM (inactive)	44.7 µM (inactive)	–	> 100 µM (inactive)	–
CCCc1n[nH]c(=O)n1N1C(=O)C=CC1=O	> 100 µM (inactive)	> 100 µM (inactive)	> 100 µM (inactive)	> 100 µM (inactive)	> 100 µM (inactive)	–	> 100 µM (inactive)	> 100 µM (inactive)	> 100 µM (inactive)	> 100 µM (inactive)	> 100 µM (inactive)	> 100 µM (inactive)	> 100 µM (inactive)	> 100 µM (inactive)	–	> 100 µM (inactive)	> 100 µM (inactive)	> 100 µM (inactive)	> 100 µM (inactive)
Cc1cc2c(-c3ccccc3)cc(=O)[nH]c2cc1N	> 100 µM (inactive)	> 100 µM (inactive)	> 100 µM (inactive)	> 100 µM (inactive)	> 100 µM (inactive)	> 100 µM (inactive)	> 100 µM (inactive)	> 100 µM (inactive)	> 100 µM (inactive)	> 100 µM (inactive)	> 100 µM (inactive)	> 100 µM (inactive)	> 100 µM (inactive)	–	–	> 100 µM (inactive)	> 100 µM (inactive)	> 100 µM (inactive)	> 100 µM (inactive)
C=CCOc1ccc(C2C(C(=O)OC)C(=O)CC(O)(c3ccccc3)C2C(=O)OC)cc1OC (stereo not drawn)	41.7 µM (inactive)	–	27.5 µM (inactive)	42.4 µM (inactive)	34.7 µM (inactive)	22.4 µM (inactive)	35.3 µM (inactive)	21.2 µM (inactive)	17 µM (inactive)	31.7 µM (inactive)	34.4 µM (inactive)	20 µM (inactive)	22.8 µM (inactive)	–	20.5 µM (inactive)	26.9 µM (inactive)	30.9 µM (inactive)	–	45.6 µM (inactive)
CC1(C)O[C@@H]([C@H](O)CO)[C@H](O)[C@@H](C2SCCCS2)O1	> 100 µM (inactive)	> 100 µM (inactive)	> 10 µM (inactive)	> 100 µM (inactive)	> 100 µM (inactive)	> 100 µM (inactive)	> 100 µM (inactive)	> 100 µM (inactive)	> 100 µM (inactive)	> 100 µM (inactive)	> 100 µM (inactive)	> 100 µM (inactive)	59.8 µM (inactive)	> 100 µM (inactive)	> 100 µM (inactive)	> 100 µM (inactive)	–	> 100 µM (inactive)	> 100 µM (inactive)
Nc1c(C(=O)c2ccc(Cl)c(Cl)c2)[nH]c(NCc2ccccc2)c1C(=S)Nc1ccccc1	14.9 µM (inactive)	3.56 µM (inactive)	3.31 µM (inactive)	17.3 µM (inactive)	11.8 µM (inactive)	11.3 µM (inactive)	–	2.47 µM (inactive)	11.2 µM (inactive)	13.8 µM (inactive)	5.15 µM (inactive)	3.48 µM (inactive)	15.3 µM (inactive)	17.2 µM (inactive)	14.1 µM (inactive)	3.48 µM (inactive)	–	2.68 µM (inactive)	17.5 µM (inactive)
CNC(=O)N1CCN(C(=O)NC)CCN(C(=O)NC)CC1	> 100 µM (inactive)	> 100 µM (inactive)	> 100 µM (inactive)	> 100 µM (inactive)	> 100 µM (inactive)	> 100 µM (inactive)	> 100 µM (inactive)	> 100 µM (inactive)	> 100 µM (inactive)	> 100 µM (inactive)	> 100 µM (inactive)	> 100 µM (inactive)	> 100 µM (inactive)	> 100 µM (inactive)	> 100 µM (inactive)	> 100 µM (inactive)	> 100 µM (inactive)	–	–
CC(=O)O[C@H]1C(=O)[C@@]2(C)[C@H]([C@H](OC(=O)c3ccccc3)[C@]3(O)C[C@H](OC(=O)[C@H](O)[C@@H](NC(=O)CC(C)C)c4ccccc4)C(C)=C1C3(C)C)[C@]1(OC(C)=O)CO[C@@H]1C[C@@H]2O	0.00524 µM (active)	–	0.00149 µM (active)	0.0221 µM (active)	0.00285 µM (active)	0.038 µM (active)	0.00251 µM (active)	< 0.001 µM (active)	0.0378 µM (active)	0.00281 µM (active)	0.00637 µM (active)	0.00167 µM (active)	0.247 µM (active)	0.00433 µM (active)	0.00486 µM (active)	0.0445 µM (active)	0.00198 µM (active)	0.00204 µM (active)	–
C1=C(CC2=C[P+](c3ccccc3)(c3ccccc3)C=C(c3ccccc3)O2)OC(c2ccccc2)=C[P+]1(c1ccccc1)c1ccccc1	0.339 µM (active)	0.573 µM (active)	0.489 µM (active)	0.597 µM (active)	0.184 µM (active)	–	0.293 µM (active)	0.392 µM (active)	0.684 µM (active)	0.337 µM (active)	0.494 µM (active)	0.332 µM (active)	0.716 µM (active)	0.367 µM (active)	0.362 µM (active)	0.566 µM (active)	0.361 µM (active)	0.362 µM (active)	0.32 µM (active)
O=C1OC(C2OC(=O)c3cc(O)c(O)c(O)c3-c3c(O)c(O)c4oc(=O)c5c(c(O)c(O)c6oc(=O)c3c4c65)-c3c(cc(O)c(O)c3O)C(=O)OCC2O)C2OC(=O)c3c(c(O)c(O)c(O)c3[C@H]2O)-c2c1cc(O)c(O)c2O (stereo partly drawn)	15.9 µM (inactive)	16.4 µM (inactive)	22.6 µM (inactive)	33.5 µM (inactive)	25.6 µM (inactive)	16.8 µM (inactive)	13.9 µM (inactive)	6.05 µM (inactive)	18.2 µM (inactive)	36.4 µM (inactive)	20.2 µM (inactive)	17.3 µM (inactive)	> 100 µM (inactive)	59.7 µM (inactive)	24.7 µM (inactive)	16.6 µM (inactive)	10.9 µM (inactive)	–	24.4 µM (inactive)

Source: ChEMBL document CHEMBL1201862, “PubChem BioAssay data set” (2004)
